For the test, the system named is L1210 leukemia ip in BDF1 mice, survival T/C. Kind of test: NCI In Vivo Anticancer Drug Screen. Data for tumor model L1210 Leukemia (intraperitoneal) in B6D2F1 (BDF1) mice. Particulars: endpoint: mean survival time, higher = longer survival. In outline: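 In this screen, tumor-bearing mice given compound are compared to those given vehicle, and their survival values are reported as a treated-to-control quotient.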

[1] abbreviates: dose: 100.0 mg/kg/injection, schedule: Q04DX003 (ip), vehicle: Klucel (hydroxypropylcellulose) (HPC).
[2] abbreviates: dose: 200.0 mg/kg/injection, schedule: Q04DX003 (ip), vehicle: Klucel (hydroxypropylcellulose) (HPC).
Setting [3] is: dose: 400.0 mg/kg/injection, schedule: Q04DX003 (ip), vehicle: Klucel (hydroxypropylcellulose) (HPC).

SMILES strings stand for the structures. Toxic doses and inconclusive results are not listed.

Take `CCCCCCCCC1NC1CCCCCCCC` (stereo not given): the T/C (dose: 25.0 mg/kg/injection, schedule: Q04DX002 (ip), vehicle: saline with Tween-80) is 98 % of control; the T/C (dose: 50.0 mg/kg/injection, schedule: Q04DX002 (ip), vehicle: saline with Tween-80) is 88 % of control; the T/C (dose: 100.0 mg/kg/injection, schedule: Q04DX002 (ip), vehicle: other) was 100 % of control; the T/C (dose: 100.0 mg/kg/injection, schedule: Q04DX002 (ip), vehicle: saline with Tween-80) is 100 % of control; the T/C (dose: 200.0 mg/kg/injection, schedule: Q04DX002 (ip), vehicle: other) is 96 % of control.
For `NCC(=O)NCCCCCCCCCCNC(=O)CN`, the T/C is, setting by setting: (dose: 10.0 mg/kg/injection, schedule: Q01DX Z (ip), vehicle: saline) 98 % of control; (dose: 30.0 mg/kg/injection, schedule: Q01DX Z (ip), vehicle: saline) 95 % of control; (dose: 100.0 mg/kg/injection, schedule: Q01DX Z (ip), vehicle: saline) 98 % of control.
In the case of `c1ncc(OCCN2CC2)nc1OCCN1CC1`, the T/C is, setting by setting: (dose: 0.12 mg/kg/injection, schedule: Q01DX009 (ip), vehicle: carboxymethylcellulose (CMC)) 102 % of control; (dose: 0.25 mg/kg/injection, schedule: Q01DX009 (ip), vehicle: carboxymethylcellulose (CMC)) 108 % of control; (dose: 0.5 mg/kg/injection, schedule: Q01DX009 (ip), vehicle: carboxymethylcellulose (CMC)) 102 % of control; (dose: 0.5 mg/kg/injection, schedule: Q01DX009 (ip), vehicle: saline) 97 % of control; (dose: 1.0 mg/kg/injection, schedule: Q01DX009 (ip), vehicle: carboxymethylcellulose (CMC)) 95 % of control; (dose: 1.0 mg/kg/injection, schedule: Q01DX009 (ip), vehicle: saline) 97 % of control. The T/C (dose: 3.0 mg/kg/injection, schedule: Q01DX009 (ip), vehicle: saline) is 156 % of control; the T/C (dose: 11.1 mg/kg/injection, schedule: Q01DX001 (ip), vehicle: carboxymethylcellulose (CMC)) was 124 % of control; the T/C (dose: 11.1 mg/kg/injection, schedule: Q01DX001 (ip), vehicle: saline) was 120 % of control.
On to `Cc1cccc(CO)c1NC(=O)NCCCl`, for which the T/C by setting is: under setting [1], 99 % of control; under setting [2], 110 % of control; under setting [3], 103 % of control.
For `CC1(C)CC(=O)c2c(cc3oc(=O)ccc3c2O)O1`, in that order: 102 % of control, 105 % of control and 98 % of control.
With `O=C(Nc1ccc([N+](=O)[O-])cc1)Nc1ccc([N+](=O)[O-])cc1` (tested in a mixture with another compound), the T/C is, setting by setting: under setting [1], 89 % of control; (dose: 200.0 mg/kg/injection, schedule: Q01DX009 (ip), vehicle: saline) 98 % of control; under setting [2], 100 % of control; (dose: 400.0 mg/kg/injection, schedule: Q01DX009 (ip), vehicle: saline) 88 % of control; under setting [3], 89 % of control.
Turning to `C=CCN(CC=C)C(=S)NC(=O)c1ccccc1`, the T/C by setting is: (dose: 100.0 mg/kg/injection, schedule: Q01DX009 (ip), vehicle: Klucel (hydroxypropylcellulose) (HPC)) 110 % of control; (dose: 200.0 mg/kg/injection, schedule: Q01DX009 (ip), vehicle: Klucel (hydroxypropylcellulose) (HPC)) 104 % of control.

For the origin of these results see PubChem BioAssay AID248 (DTP/NCI, 2004).
